The results in this text go back to patent publication US7517874B2 (priority 2007, dated 2009).

For test [1], the target named is T1, rat CB2 receptor (rCB2) (Rattus norvegicus, UniProt Q9QZN9).
T1 sequence (Q9QZN9 1-360): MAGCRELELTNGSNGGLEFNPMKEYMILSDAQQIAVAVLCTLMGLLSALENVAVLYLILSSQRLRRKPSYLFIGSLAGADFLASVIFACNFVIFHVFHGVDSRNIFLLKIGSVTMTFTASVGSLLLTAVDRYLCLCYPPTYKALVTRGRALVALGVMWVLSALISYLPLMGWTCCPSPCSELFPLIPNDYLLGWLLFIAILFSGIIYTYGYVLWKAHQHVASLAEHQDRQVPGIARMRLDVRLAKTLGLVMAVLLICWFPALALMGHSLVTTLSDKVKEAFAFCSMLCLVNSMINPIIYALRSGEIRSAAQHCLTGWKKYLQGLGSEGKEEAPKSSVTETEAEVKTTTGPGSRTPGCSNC
Description: cell-based. The test is classed as cell-based. To be noted: for +/− RCB2: agonist or inverse agonist at rCB2. A digest of the protocol:
(§1)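 Readout: LANCE TR-FRET cAMP, back-calculated from a concurrent standard curve and scaled between forskolin-only and forskolin + 1 μM CP55,940 wells. EC50 and intrinsic activity came from four-parameter fits.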

The target in test [2] is human CB1 receptor (hCB1) (Homo sapiens, UniProt P21554). Description: cell-based. Format: cell-based. To be noted: for +/− HCB1: agonist or inverse agonist at hCB1. The procedure, abridged: as §1
Where [3] appears, read: groups >100 nM-10 μM and >10 μM, cAMP, CHO-K1 hCB1, read-out: EC50 HCB1.

Like-named read-outs stand apart in the source and are kept apart here. Where only a bound is given, the exact number is not on record here.

Sequence of human CB1 receptor (hCB1) (P21554 whole entry): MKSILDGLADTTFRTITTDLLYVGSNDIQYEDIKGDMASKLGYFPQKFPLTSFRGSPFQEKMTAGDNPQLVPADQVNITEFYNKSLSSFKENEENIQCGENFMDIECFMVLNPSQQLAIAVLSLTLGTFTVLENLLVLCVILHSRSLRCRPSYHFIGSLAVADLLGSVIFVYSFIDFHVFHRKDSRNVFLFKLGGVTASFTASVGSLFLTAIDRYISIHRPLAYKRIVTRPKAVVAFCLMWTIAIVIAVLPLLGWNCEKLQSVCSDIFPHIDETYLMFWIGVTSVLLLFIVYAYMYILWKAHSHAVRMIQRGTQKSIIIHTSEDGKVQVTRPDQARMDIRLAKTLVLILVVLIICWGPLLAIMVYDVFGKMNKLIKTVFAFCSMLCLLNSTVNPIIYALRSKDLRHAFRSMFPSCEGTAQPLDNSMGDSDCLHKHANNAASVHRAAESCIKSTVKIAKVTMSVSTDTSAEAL

As to `CNC(=O)[C@@H](NC(=O)c1nc(-c2ccccc2C(C)C)n2c1CN(C)CCC2)C(C)(C)C` [Compound 403, (S)-N-(3,3-dimethyl-1-(methylamino)-1-oxobutan-2-yl)-3-(2-isopropylphenyl)-8-methyl-6,7,8,9-tetrahydro-5H-imidazo[1,5-a][1,4]diazepine-1-carboxamide], the “+/− RCB2” value in test [1] was “+”. Moreover, in test [2], the EC50 was more than 10000 nM.
As to `COC(=O)c1cccc(CNC(=O)c2nc(-c3ccc(Cl)cc3F)n3c2CN(C)CC3)c1` [Compound 224, methyl 3-((3-(4-chloro-2-fluorophenyl)-7-methyl-5,6,7,8-tetrahydroimidazo[1,5-a]pyrazine-1-carboxamido)methyl)benzoate], in test [1], the “+/− RCB2” value is listed as “−”. Further, the EC50 in test [2] (setting [3]) was more than 10000 nM.
Take `CNC(=O)[C@@H](NC(=O)c1nc(-c2ccc(C(C)=O)cc2)n2c1CN(C)CCC2)C(C)(C)C` [Compound 415, (S)-3-(4-acetylphenyl)-N-(3,3-dimethyl-1-(methylamino)-1-oxobutan-2-yl)-8-methyl-6,7,8,9-tetrahydro-5H-imidazo[1,5-a][1,4]diazepine-1-carboxamide]: the EC50 in test [1] was more than 10 µM; in test [2], more than 10000 nM.
The corresponding values for `CNC(=O)[C@H](NC(=O)c1nc(-c2ccccc2)n2c1CN(C)CC2)C(C)(C)C` [Compound 302, (R)-N-(3,3-dimethyl-1-(methylamino)-1-oxobutan-2-yl)-7-methyl-3-phenyl-5,6,7,8-tetrahydroimidazo[1,5-a]pyrazine-1-carboxamide] are more than 10 µM and more than 10000 nM.
In the case of `Cc1noc([C@@H](NC(=O)c2nc(-c3ccccc3)n3c2CN(C(C)C)CC3)C(C)(C)C)n1` [Compound 89, (S)-N-(2,2-dimethyl-1-(3-methyl-1,2,4-oxadiazol-5-yl)propyl)-7-isopropyl-3-phenyl-5,6,7,8-tetrahydroimidazo[1,5-a]pyrazine-1-carboxamide], the “+/− RCB2” value in test [1] was “−”. The same molecule returned an EC50 in test [2] of more than 10000 nM.
Consider `CC(C)CCNC(=O)c1nc(-c2ccc(Cl)cc2)n2c1CNCC2` [Compound 42, 3-(4-chlorophenyl)-N-isopentyl-5,6,7,8-tetrahydroimidazo[1,5-a]pyrazine-1-carboxamide], for which the “+/− RCB2” value in test [1] was “−”. Besides, the EC50 in test [2] (setting [3]) was more than 10000 nM.
For the molecule `CC(C)NC(=O)[C@@H](NC(=O)c1nc(-c2ccccc2)n2c1CN(C)CCC2)C(C)(C)C` [Compound 472, (S)-N-(1-(isopropylamino)-3,3-dimethyl-1-oxobutan-2-yl)-8-methyl-3-phenyl-6,7,8,9-tetrahydro-5H-imidazo[1,5-a][1,4]diazepine-1-carboxamide], the “+/− RCB2” value in test [1] is reported as “+”. This molecule gave an EC50 in test [2] of more than 10000 nM.
The corresponding values for `CNC(=O)[C@@H](NC(=O)c1nc(-c2ccc(C)o2)n2c1CN(C)CCC2)C(C)(C)C` [Compound 443, (S)-N-(3,3-dimethyl-1-(methylamino)-1-oxobutan-2-yl)-8-methyl-3-(5-methylfuran-2-yl)-6,7,8,9-tetrahydro-5H-imidazo[1,5-a][1,4]diazepine-1-carboxamide] are “−” and more than 10000 nM.
With `CNC(=O)[C@@H](NC(=O)c1nc(-c2ccc(-c3ccccc3)c(F)c2)n2c1CN(C)CCC2)C(C)(C)C` [Compound 419, (S)-N-(3,3-dimethyl-1-(methylamino)-1-oxobutan-2-yl)-3-(2-fluorobiphenyl-4-yl)-8-methyl-6,7,8,9-tetrahydro-5H-imidazo[1,5-a][1,4]diazepine-1-carboxamide], the EC50 in test [1] is more than 10 µM; in test [2], more than 10000 nM.
Consider `CNC(=O)[C@@H](NC(=O)c1nc(C(C)C(C)C)n2c1CN(C)CCC2)C(C)(C)C` (stereo partly drawn) [Compound 507, N-((S)-3,3-dimethyl-1-(methylamino)-1-oxobutan-2-yl)-8-methyl-3-(3-methylbutan-2-yl)-6,7,8,9-tetrahydro-5H-imidazo[1,5-a][1,4]diazepine-1-carboxamide], for which the “+/− RCB2” value in test [1] was “+”. The “+/− HCB1” value in test [2] is recorded as “+”.
As for `O=C(NC1CCCCC1)c1nc(-c2ccccc2)n2c1CN(CC1CCOC1)CC2` (stereo not shown) [Compound 141, N-cyclohexyl-3-phenyl-7-((tetrahydrofuran-3-yl)methyl)-5,6,7,8-tetrahydroimidazo[1,5-a]pyrazine-1-carboxamide], in test [1], the “+/− RCB2” value is given as “−”. This molecule also came in with an EC50 in test [2] of more than 10000 nM.
For the molecule `CNC(=O)[C@@H](NC(=O)c1nc(-c2ccc(C)cc2F)n2c1CN(C)CCC2)C(C)(C)C` [Compound 340, (S)-N-(3,3-dimethyl-1-(methylamino)-1-oxobutan-2-yl)-3-(2-fluoro-4-methylphenyl)-8-methyl-6,7,8,9-tetrahydro-5H-imidazo[1,5-a][1,4]diazepine-1-carboxamide], the “+/− RCB2” value in test [1] was “+”. In test [2], this molecule gave an EC50 of more than 10000 nM.
As to `CN1CCCn2c(-c3ccccc3)nc(C(=O)N[C@H](C(=O)O)C(C)(C)C)c2C1` [Compound 471, (S)-3,3-dimethyl-2-(8-methyl-3-phenyl-6,7,8,9-tetrahydro-5H-imidazo[1,5-a][1,4]diazepine-1-carboxamido)butanoic acid], the EC50 in test [1] is more than 10 µM; in test [2] it was more than 10000 nM.
For the molecule `CNC(=O)[C@@H](NC(=O)c1nc(-c2ccccc2)n2c1CNCCC2)C(C)(C)C` [Compound 314, (S)-N-(3,3-dimethyl-1-(methylamino)-1-oxobutan-2-yl)-3-phenyl-6,7,8,9-tetrahydro-5H-imidazo[1,5-a][1,4]diazepine-1-carboxamide], the “+/− RCB2” value in test [1] is “−”. This molecule also registered an EC50 in test [2] of more than 10000 nM.
With `CNC(=O)[C@@H](NC(=O)c1nc(C2=CCNCC2)n2c1CN(C)CCC2)C(C)(C)C` [Compound 460, (S)-N-(3,3-dimethyl-1-(methylamino)-1-oxobutan-2-yl)-8-methyl-3-(1,2,3,6-tetrahydropyridin-4-yl)-6,7,8,9-tetrahydro-5H-imidazo[1,5-a][1,4]diazepine-1-carboxamide], the “+/− RCB2” value in test [1] is “+”. The “+/− HCB1” value in test [2] is recorded as “+”.
As to `CNC(=O)[C@@H](NC(=O)c1nc(-c2ccccc2)n2c1CN(C(=O)OC(C)(C)C)CC2)C(C)(C)C` [Compound 1, (S)-tert-butyl 1-(3,3-dimethyl-1-(methylamino)-1-oxobutan-2-ylcarbamoyl)-3-phenyl-5,6-dihydroimidazo[1,5-a]pyrazine-7(8H)-carboxylate], the “+/− RCB2” value in test [1] is listed as “−”. This molecule had an EC50 in test [2] of more than 10000 nM.
As for `CNC(=O)[C@@H](NC(=O)c1nc(CCCN2CCOCC2)n2c1CN(C)CCC2)C(C)(C)C` [Compound 500, (S)-N-(3,3-dimethyl-1-(methylamino)-1-oxobutan-2-yl)-8-methyl-3-(3-morpholinopropyl)-6,7,8,9-tetrahydro-5H-imidazo[1,5-a][1,4]diazepine-1-carboxamide], the values for the EC50 in test [1] and in test [2] were more than 10 µM and more than 10000 nM, respectively.
Regarding `CNC(=O)[C@@H](NC(=O)c1nc(-c2ccccc2)n2c1CN(C(=O)C(C)C)CC2)C(C)(C)C` [Compound 191, (S)-N-(3,3-dimethyl-1-(methylamino)-1-oxobutan-2-yl)-7-isobutyryl-3-phenyl-5,6,7,8-tetrahydroimidazo[1,5-a]pyrazine-1-carboxamide], the “+/− RCB2” value in test [1] was “−”. The molecule also gave an EC50 in test [2] of more than 10000 nM.
In the case of `CNC(=O)[C@@H](NC(=O)c1nc(-c2ccccc2)n2c1CN(c1cncc(Cl)n1)CC2)C(C)(C)C` [Compound 300, (S)-7-(6-chloropyrazin-2-yl)-N-(3,3-dimethyl-1-(methylamino)-1-oxobutan-2-yl)-3-phenyl-5,6,7,8-tetrahydroimidazo[1,5-a]pyrazine-1-carboxamide], the “+/− RCB2” value in test [1] is “−”. In addition, the “+/− HCB1” value in test [2] is listed as “+”.
In the case of `Cc1noc([C@@H](NC(=O)c2nc(-c3ccccc3)n3c2CN(C(C)C)CCC3)C(C)(C)C)n1` [Compound 525, (S)-N-(2,2-dimethyl-1-(3-methyl-1,2,4-oxadiazol-5-yl)propyl)-8-isopropyl-3-phenyl-6,7,8,9-tetrahydro-5H-imidazo[1,5-a][1,4]diazepine-1-carboxamide], the “+/− RCB2” value in test [1] is on record as “−”. The molecule also yielded an EC50 in test [2] of more than 10000 nM.
As to `CNC(=O)[C@@H](NC(=O)c1nc(-c2ccc(F)cc2F)n2c1CN(C)CC2)C(C)(C)C` [Compound 248, (S)-3-(2,4-difluorophenyl)-N-(3,3-dimethyl-1-(methylamino)-1-oxobutan-2-yl)-7-methyl-5,6,7,8-tetrahydroimidazo[1,5-a]pyrazine-1-carboxamide], the EC50 in test [1] was more than 10 µM; in test [2] it was more than 10000 nM.
In the same order, the values of `CNC(=O)[C@@H](NC(=O)c1nc(-c2ccc(C(N)=O)cc2)n2c1CN(C)CCC2)C(C)(C)C` [Compound 423, (S)-3-(4-carbamoylphenyl)-N-(3,3-dimethyl-1-(methylamino)-1-oxobutan-2-yl)-8-methyl-6,7,8,9-tetrahydro-5H-imidazo[1,5-a][1,4]diazepine-1-carboxamide] are more than 10 µM and more than 10000 nM.
In the same order, the values of `Cc1cnc(CNC(=O)c2nc(-c3ccccc3)n3c2CN(C)CC3)cn1` [Compound 237, 7-methyl-N-((5-methylpyrazin-2-yl)methyl)-3-phenyl-5,6,7,8-tetrahydroimidazo[1,5-a]pyrazine-1-carboxamide] are more than 10 µM and more than 10000 nM.

As a reminder, the EC50 is the midpoint of the concentration-response curve.
